# “Also recorded” adds a separate entry of the source. Where no end group is shown, it is not given here.
# Assays:
# diet-induced obese mice [1] = assay: Metabolic parameters in closed metabolic chambers (TSE PhenoMaster/LabMaster); assay type: in vivo, mouse
# From the text: FIGS. 4A-C show the results of metabolic measurements of body weights, energy expenditure (VO2), and physical activities of mice during three days of monitoring in TSE-Systems metabolic cages. Mice were 37 weeks old and fed the very high fat diet for 31 weeks at the time of the study. 4A. Line graph showing body weights during three-day monitoring. Vehicle N=2; GLP-1s N=3. # p<0.01; ## p<0.006; ## p<0.008; ## p<0.007. 4B. Bar graph and line graph showing total body oxygen consumption (VO2) measured during both light and dark cycles for the three days of monitoring. Upper panel; Total VO2. Lower panel: Daily time-course of VO2 during light and dark cycles averaged over the three days. Vehicle N=2; GLP-1s N=3. 4C. Bar graph and line graph showing physical activity of the mice during the three days of the metabolic studies. Upper panel: Total activities averaged for light and dark cycles. Lower panel: Time-dependent measurements of activities. Activities were measured for hourly intervals during the light cycle of six hours (13:00 to 18:00) and for two hour intervals during the dark cycle of 12 hours (18:00 to 6:00). […] Vehicle N=2; GLP-1s N=3. The findings support a model of increased basal energy expenditure in mice infused with GLP-1(32-36)amide versus mice infused with control vehicle, independent of endogenous energy expenditure due to physical activity. N=3 mice for pentapeptide infusion and N=2 mice for control vehicle infusion.
# FIGS. 4D-G show the results of metabolic measurements of energy expenditure (VO2) of monitoring in TSE-Systems metabolic cages. Mice were 33-34 weeks old and fed the very high fat diet for […] at the time of the study. 4D and 4E. Line graph and bar graph showing total body oxygen consumption (VO2) measured during the light phase during two days. 4F and 4G. Line graph and bar graph showing lean body oxygen consumption (VO2) measured during the light phase during two days.
# Mice were single-caged for three days acclimatization and then transferred to single-cage metabolic chambers in a PhenoMaster/LabMaster system (TSE-Systems, Inc., Chesterfield, Mo.) for measurements of oxygen consumption, CO2, physical activity, and food intake during light and dark cycles for a period of 72 hrs.
# diet-induced obese mice [2] = assay: Liver triglyceride content; assay type: in vivo, mouse
# Experimental: FIGS. 6A-B are bar graphs showing that infusions of GLP-1(32-36)amide in mice prevent the accumulation of triglyceride in the livers of mice fed a very high-diet (VHFD). Triglyceride contents of samples of livers of mice fed a high-fat diet (VHFD) for 32 weeks (age 38 weeks). 6A. Triglyceride levels of pentapeptide-infused obese mice as a percent of the vehicle-infused control mice set at 100%. *p<0.005. 6B. Triglyceride content levels of 60.5+/−12.1 mg/mg protein. Infusion of the pentapeptide lowered the triglyceride content by 65% to 21.1+/−5.6 mg/mg protein, indistinguishable from the values in the livers of lean mice fed low-fat chow (21.6+/−7 mg/mg protein). Data from diet-induced obese mice infused with the nonapeptide, GLP-1(28-36)amide for 16 weeks are also shown. Values are represented as % of vehicle control infused mice fed a high-fat diet (VHFD). *p<0.005, peptide vs. vehicle. N=6 mice per group. Values are means+/−SEMs.
# Representative samples (2-3 gms) of livers were obtained and quick frozen on solid CO2 at the time of sacrifice and necropsy. The samples were subsequently homogenized and triglycerides were extracted and measured using a colorimetric enzymatic assay (Serum Triglyceride Determination kit, Sigma).
# [3] = system: insulin-resistant isolated mouse hepatocytes; assay: Glucose production assay in isolated hepatocytes; assay type: cell-based; settings: stimulated by cAMP/dexamethasone/lactate; basal glucose production not suppressed
# From the text: FIG. 8 is a bar graph showing suppression of glucose production by the pentapeptide GLP-1(32-36)amide (LVKGRamide (SEQ ID NO:1)) in insulin-resistant hepatocytes. Mice (male, C57bl/6) from 12-19 weeks of age were fasted overnight (16 hrs) and primary hepatocytes were isolated using a collagen and perfusion gradient purification. Cells were first seeded using a Dulbecco's modified Eagle's medium (DMEM) supplemented with 10% FBS, 1 g/L glucose, 2 mmol/1 sodium pyruvate, 1 micromol/L dexamethasone, and 0.1 micromol/L insulin, and later maintained in DMEM with 0.2% BSA, 1 g/L glucose, 0.1 micromol/L dexamethasone, and lnmol/L insulin. […] The readings were then normalized to total protein content determined from whole-cell lysates. […]
# Primary hepatocytes (2×10^5 cells per well in twelve-well plates) were pre-treated with GLP-1(32-36)amide for 1 hour followed by the stimulation of insulin resistance by the addition of cAMP (10 microM)/dexamethasone ([…])/sodium lactate (2 mM) in glucose-free DMEM without phenol red. […] The readings were then normalized to total protein content determined from whole-cell lysates.
substance,measurement,setting,value
"LVKGRamide (LVKGR-NH2) [GLP-1(32-36)amide, pentapeptide derived from the C-terminus of the glucoincretin hormone GLP-1]",body weight during three-day metabolic chamber monitoring,"diet-induced obese mice [1]; VHFD 31 weeks, infusion twelve weeks, vehicle 52 (FIG. 4A)",38 grams
same,cumulative food consumption vs vehicle,diet-induced obese mice [1]; indirect calorimetric studies,lower
same,physical activity vs vehicle,diet-induced obese mice [1]; light and dark cycles (FIG. 4C),not significantly different; also recorded: not associated with changes; also recorded: no significant differences
same,whole body oxygen consumption (Total VO2) vs vehicle,diet-induced obese mice [1]; light cycle and dark cycle (FIG. 4B),significantly higher
same,resting oxygen consumption vs vehicle,"diet-induced obese mice [1]; light cycle and dark cycle (FIG. 4D, 4E)",increase
same,liver triglyceride as percent of vehicle control set at 100%,diet-induced obese mice [2]; VHFD mice (FIG. 6A),35%
same,liver triglyceride content decrease compared to vehicle,"diet-induced obese mice [2]; VHFD mice, pentapeptide infusion (FIG. 6A, 6B)",65%
same,liver triglyceride content,"diet-induced obese mice [2]; VHFD mice, vehicle 60.5+/-12.1, lean low-fat diet mice 21.6+/-7 (FIG. 6B)",21.1+/−5.6 mg/mg protein
same,glucose production (formation),[3],suppression

# From patent publication US10137171B2, “Methods of treatment using a pentapeptide derived from the C-Terminus of Glucagon-Like Peptide 1 (GLP-1)” (The General Hospital Corporation, priority 2011, dated 2018)
